This note sets out measurements from PubChem BioAssay (NCI).

Converted amounts (≈) assume the structure as drawn.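 A five-concentration, 48-hour dose response in 96-well plates underlies each endpoint, interpolated linearly between surrounding concentrations. GI50: concentration for 50% inhibition of growth. TGI: concentration producing complete growth inhibition.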 Some results are limits rather than exact numbers.

Test systems include HCC-2998 colon; HCT-116 colon; MALME-3M melanoma; NCI-H23 lung; NCI-H460 lung; OVCAR-8 ovarian; SK-MEL-28 melanoma; UO-31 renal; DU-145 prostate; SR leukemia.
Holding throughout (assay): DTP human tumour cell line panel, 48 h

On to `C#CCn1c(=O)c(C#N)c(O)c2cc3ccccc3nc21`, for which the concentration for total growth inhibition (TGI) with HCC-2998 colon, in the assay with HCT-116 colon, in the assay on MALME-3M melanoma, in the assay on NCI-H23 lung, in the assay with NCI-H460 lung and with OVCAR-8 ovarian was over 100 µM throughout. The TGI with SK-MEL-28 melanoma and with UO-31 renal was over 100 µM in each case.

Regarding `Oc1ccc(CCc2cc(O)cc(O)c2)cc1`, the TGI in the assay with DU-145 prostate, in the assay with HCT-116 colon, in the assay with MALME-3M melanoma, in the assay with NCI-H23 lung, in the assay with NCI-H460 lung and with OVCAR-8 ovarian was over 100 µM in each case. Further, the TGI in the assay with SK-MEL-28 melanoma, in the assay on SR leukemia and in the assay with UO-31 renal was over 100 µM throughout.

Consider `CC1(Cl)CC2C(CC1Sc1nnnn1-c1ccccc1)C2(C)C` (centres undefined), for which the TGI with HCC-2998 colon, in the assay on HCT-116 colon, with NCI-H23 lung, in the assay with NCI-H460 lung, in the assay with OVCAR-8 ovarian and in the assay on SK-MEL-28 melanoma was over 100 µM in each case. For the same compound, the TGI with SR leukemia and with UO-31 renal was over 100 µM each time.

With `Cc1sc2ccccc2[n+]1CCC(=O)O`, the TGI in the assay with DU-145 prostate, in the assay on HCT-116 colon, with MALME-3M melanoma, with NCI-H23 lung, with NCI-H460 lung and in the assay with OVCAR-8 ovarian was over 100 µM throughout. Also, the TGI in the assay on SK-MEL-28 melanoma was over 100 µM.

With `CCOc1cc(C2CC(c3ccc(NS(=O)(=O)c4cc([N+](=O)[O-])ccc4C)cc3)=NN2)ccc1O` (centres undefined), the TGI with DU-145 prostate was over 100 µM; with HCT-116 colon, 50.6 µM; in the assay on MALME-3M melanoma it was 75.3 µM; with NCI-H23 lung, 80.7 µM; in the assay on OVCAR-8 ovarian, over 100 µM; in the assay with SK-MEL-28 melanoma, over 100 µM. Moreover, the TGI in the assay on SR leukemia came to 53.6 µM; in the assay with UO-31 renal, 84 µM.

`C[C@]12CC[C@H](O)CC1=CC[C@@H]1[C@@H]2CC[C@]2(C)/C(=N/OCCN3CCCC3)CC[C@@H]12`: the TGI in the assay on HCC-2998 colon turned out to be 37.1 µM; with HCT-116 colon it was 28.6 µM; in the assay on MALME-3M melanoma, 27.1 µM; in the assay with NCI-H23 lung, 27.1 µM; in the assay on NCI-H460 lung, 24.8 µM; in the assay on OVCAR-8 ovarian, 30.7 µM. Further, the TGI in the assay on SK-MEL-28 melanoma came out at 30.6 µM; with SR leukemia, 35.5 µM; with UO-31 renal it was 35.3 µM.

Turning to `Nc1cc(N2CCCC2)nc(=O)n1Cc1ccccc1`, the TGI in the assay with DU-145 prostate, in the assay on HCT-116 colon, in the assay with MALME-3M melanoma, in the assay on NCI-H23 lung, in the assay on NCI-H460 lung and in the assay on OVCAR-8 ovarian was over 100 µM throughout. The same compound returned a TGI in the assay with SR leukemia of over 100 µM.

Take `COc1cc2c(cc1OC)-c1c3c(cc4c1[C@@H](C2)N(C)CC4)OCO3`: the TGI in the assay with HCC-2998 colon is 23.8 µM; with HCT-116 colon it was 36.6 µM; with MALME-3M melanoma, 20.1 µM; in the assay on NCI-H23 lung, 26.1 µM; in the assay with NCI-H460 lung, 14.3 µM; in the assay with OVCAR-8 ovarian, 31.9 µM. In addition, the TGI came to 24.9 µM in the assay on SK-MEL-28 melanoma and 49.3 µM in the assay on UO-31 renal.

Regarding `COc1cc(/C=C2/N=C(c3ccccc3)N(C3=NNC4(C(=O)N3)c3ccccc3-c3ccccc34)NC2=O)ccc1O`, the GI50 was 31.3 µg/mL in the assay on DU-145 prostate; 26.1 µg/mL in the assay on HCT-116 colon; 26.5 µg/mL in the assay on MALME-3M melanoma; 15 µg/mL with NCI-H23 lung; 28 µg/mL in the assay on NCI-H460 lung; 24 µg/mL in the assay on OVCAR-8 ovarian. Moreover, the GI50 is 31.3 µg/mL with SK-MEL-28 melanoma, 48.3 µg/mL (≈ 86.8 µM) with SR leukemia and 33.4 µg/mL in the assay with UO-31 renal. Further, the TGI with DU-145 prostate came out at 63.6 µg/mL; in the assay with HCT-116 colon, 47.3 µg/mL; in the assay on MALME-3M melanoma, 57 µg/mL; in the assay on NCI-H23 lung, 15 µg/mL; in the assay with NCI-H460 lung, 49.1 µg/mL; with OVCAR-8 ovarian it was 45.5 µg/mL. The TGI with SK-MEL-28 melanoma was 60.4 µg/mL; in the assay on SR leukemia it was over 150 µg/mL; with UO-31 renal it was 111 µg/mL.

As to `Clc1ccc(N=c2oc3ccccc3cc2-c2nc3ccccc3[nH]2)c(Cl)c1`, the concentration for total growth inhibition (TGI) in the assay with DU-145 prostate, in the assay with HCT-116 colon, with MALME-3M melanoma, with NCI-H23 lung, in the assay with OVCAR-8 ovarian and in the assay on SR leukemia was over 100 µM throughout. This compound yielded a total growth inhibition concentration (TGI) with UO-31 renal of over 100 µM.

Consider `CC(=O)OCC=C(CCl)CCC(Br)C(C)(C)Br` (mixture of isomers), for which the TGI in the assay on DU-145 prostate, with HCC-2998 colon, in the assay on HCT-116 colon, in the assay on MALME-3M melanoma, in the assay on NCI-H23 lung and in the assay with NCI-H460 lung was over 10 µM in each case. The TGI in the assay on OVCAR-8 ovarian, with SK-MEL-28 melanoma and in the assay with UO-31 renal was over 10 µM throughout.

As for `COc1cc(S(=O)(=O)Nc2ccc(C3=NNC(c4ccccc4)C3)cc2)ccc1F` (centres undefined), the GI50 in the assay with DU-145 prostate was 76.1 µM; in the assay on HCC-2998 colon it was 54.4 µM; in the assay on HCT-116 colon it was 17.3 µM; in the assay on MALME-3M melanoma, 13.2 µM; in the assay on NCI-H23 lung, 34.6 µM; with NCI-H460 lung, 32.3 µM. Moreover, the GI50 in the assay with OVCAR-8 ovarian was 68.1 µM; with SK-MEL-28 melanoma, over 100 µM; with UO-31 renal it was over 100 µM. In addition, the TGI was over 100 µM in the assay on DU-145 prostate; over 100 µM in the assay on HCC-2998 colon; over 100 µM with HCT-116 colon; 49.8 µM in the assay on MALME-3M melanoma; over 100 µM in the assay on NCI-H23 lung; over 100 µM in the assay with NCI-H460 lung. Also, the TGI in the assay with OVCAR-8 ovarian, with SK-MEL-28 melanoma and with UO-31 renal was over 100 µM throughout.

In the case of `O=c1[nH]c(N/N=C\C(O)C(O)C(O)CO)nc2ccccc12` (centres undefined), the TGI with DU-145 prostate, in the assay on HCT-116 colon, in the assay with NCI-H23 lung, with NCI-H460 lung, in the assay with OVCAR-8 ovarian and in the assay on SK-MEL-28 melanoma was over 100 µM in each case. Besides, the TGI in the assay with SR leukemia and in the assay with UO-31 renal was over 100 µM throughout.

What is called TGI is the concentration giving total growth inhibition. As a reminder, the GI50 is the concentration giving 50% growth inhibition.
